Experimental data as given in PubChem BioAssay (NCI).
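GI50 marks 50% less growth. Definition used: TGI = concentration required for complete inhibition of growth.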

Tests used:
Assay in all cases: NCI anticancer screen, dose series, 384-well format
[1] = test system: 786-0 renal
[2] = test system: A498 renal
[3] = test system: A549 NSCLC
[4] = test system: ACHN renal
[5] = test system: BT-549 breast
[6] = test system: CAKI-1 renal
[7] = test system: CCRF-CEM leukemia
[8] = test system: COLO 205 colon
[9] = test system: DU-145 prostate
[10] = test system: EKVX NSCLC
[11] = test system: HCC-2998 colon
[12] = test system: HCT-116 colon
[13] = test system: HCT-15 colon
[14] = test system: HL-60(TB) leukemia
[15] = test system: HOP-62 NSCLC
[16] = test system: HOP-92 NSCLC
[17] = test system: HS 578T breast
[18] = test system: HT29 colon
[19] = test system: IGROV1 ovarian
[20] = test system: K-562 leukemia
[21] = test system: KM12 colon
[22] = test system: LOX IMVI melanoma
[23] = test system: MCF7 breast
[24] = test system: MDA-MB-231 breast
[25] = test system: MDA-MB-435 melanoma
[26] = test system: MDA-MB-468 breast
[27] = test system: NCI-H226 lung
[28] = test system: NCI-H23 lung
[29] = test system: NCI-H322M lung
[30] = test system: NCI-H460 NSCLC
[31] = test system: NCI-H522 lung
[32] = test system: NCI/ADR-RES ovarian
[33] = test system: OVCAR-3 ovarian
[34] = test system: PC-3 prostate
[35] = test system: RXF 393 renal
[36] = test system: SF-295 CNS
[37] = test system: SK-MEL-2 melanoma
[38] = test system: SK-MEL-28 melanoma
[39] = test system: SK-MEL-5 melanoma
[40] = test system: SK-OV-3 ovarian
[41] = test system: SNB-19 CNS
[42] = test system: SNB-75 CNS
[43] = test system: SR leukemia
[44] = test system: SW-620 colon
[45] = test system: U251 glioblastoma
[46] = test system: UACC-257 melanoma
[47] = test system: UACC-62 melanoma

Cc1cc(C)c(CNC(=O)c2cc(-c3ccc(CN4CCOCC4)cc3)cc3c2cnn3C2CCCC2)c(=O)[nH]1
GI50 [1]: 5.82 µM | TGI [1]: 16.9 µM | GI50 [2]: 3.92 µM | TGI [2]: 15.4 µM | GI50 [3]: 6.65 µM | TGI [3]: 17.7 µM | GI50 [4]: 10.3 µM | TGI [4]: 23.9 µM | GI50 [5]: 8.98 µM | TGI [5]: 22.1 µM | GI50 [6]: 9.04 µM | TGI [6]: 22.2 µM | GI50 [7]: 3.42 µM | TGI [7]: 8.99 µM | GI50 [8]: 8.25 µM | TGI [8]: 20.5 µM | GI50 [9]: 13.5 µM | TGI [9]: 27.6 µM | GI50 [10]: 3.41 µM | TGI [10]: 21.6 µM | GI50 [11]: 6.61 µM | TGI [11]: 17.7 µM | GI50 [12]: 7.13 µM | TGI [12]: 19.5 µM | GI50 [13]: 3.03 µM | TGI [13]: 11.6 µM | GI50 [14]: 4.13 µM | TGI [14]: 12.6 µM | GI50 [15]: 6.39 µM | TGI [15]: 17.4 µM | GI50 [16]: 6.29 µM | TGI [16]: 17.1 µM | GI50 [17]: 2.92 µM | TGI [17]: 7.44 µM | GI50 [18]: 2.3 µM | TGI [18]: 5.14 µM | GI50 [19]: 1.02 µM | TGI [19]: 25 µM | GI50 [20]: 4.84 µM | TGI [20]: 16.5 µM | GI50 [21]: 8.88 µM | TGI [21]: 21.7 µM | GI50 [22]: 7.45 µM | TGI [22]: 20.7 µM | GI50 [23]: 6.19 µM | TGI [23]: 17.8 µM | GI50 [24]: 8.35 µM | TGI [24]: 21.4 µM | GI50 [25]: 12 µM | TGI [25]: 25.3 µM | GI50 [26]: 0.0189 µM | TGI [26]: 0.0459 µM | GI50 [27]: 12.9 µM | TGI [27]: 25.9 µM | GI50 [28]: 14.3 µM | TGI [28]: 27.5 µM | GI50 [29]: 12.1 µM | TGI [29]: 24.8 µM | GI50 [30]: 7.72 µM | TGI [30]: 20.5 µM | GI50 [31]: 15.3 µM | TGI [31]: 28.7 µM | GI50 [32]: 11.6 µM | TGI [32]: 24 µM | GI50 [33]: 4.83 µM | TGI [33]: 17.5 µM | GI50 [34]: 8.37 µM | TGI [34]: 20.8 µM | GI50 [35]: 5.49 µM | TGI [35]: 15.8 µM | GI50 [36]: 12 µM | TGI [36]: 24.6 µM | GI50 [37]: 13 µM | TGI [37]: 25.7 µM | GI50 [38]: 9.62 µM | TGI [38]: 21.9 µM | GI50 [39]: 5.47 µM | TGI [39]: 13.9 µM | GI50 [40]: 13.4 µM | TGI [40]: 26.4 µM | GI50 [41]: 9.84 µM | TGI [41]: 23.4 µM | GI50 [42]: 7.97 µM | TGI [42]: 21.2 µM | GI50 [43]: 2.41 µM | TGI [43]: 5.85 µM | GI50 [44]: 13.2 µM | TGI [44]: 26.3 µM | GI50 [45]: 7.69 µM | TGI [45]: 20.2 µM | GI50 [46]: 2.23 µM | TGI [46]: 4.96 µM | GI50 [47]: 12.3 µM | TGI [47]: 24.9 µM
